Laboratory results as given in patent US20240261417A1, “SOS1 DEGRADING AGENT AND PREPARATION METHOD THEREFOR AND APPLICATION THEREOF” (SHANGHAI LEADINGTAC PHARMACEUTICAL CO. LTD., priority 2021, published 2024).

Assays:
Assay type in all cases: cell-based
SOS1 protein [1] = target: T1, SOS1 protein (Homo sapiens, UniProt Q07889); assay: SOS1 degradation assay (Western blot), DLD-1 cells; design: host or cells: DLD-1 (human cancer cell lines); conditions: 24 h; for DC50: read-out: DLD-1 (G13D) DC50; for Dmax: read-out: DLD-1 (G13D) Dmax
T1 sequence (Q07889 1-1333): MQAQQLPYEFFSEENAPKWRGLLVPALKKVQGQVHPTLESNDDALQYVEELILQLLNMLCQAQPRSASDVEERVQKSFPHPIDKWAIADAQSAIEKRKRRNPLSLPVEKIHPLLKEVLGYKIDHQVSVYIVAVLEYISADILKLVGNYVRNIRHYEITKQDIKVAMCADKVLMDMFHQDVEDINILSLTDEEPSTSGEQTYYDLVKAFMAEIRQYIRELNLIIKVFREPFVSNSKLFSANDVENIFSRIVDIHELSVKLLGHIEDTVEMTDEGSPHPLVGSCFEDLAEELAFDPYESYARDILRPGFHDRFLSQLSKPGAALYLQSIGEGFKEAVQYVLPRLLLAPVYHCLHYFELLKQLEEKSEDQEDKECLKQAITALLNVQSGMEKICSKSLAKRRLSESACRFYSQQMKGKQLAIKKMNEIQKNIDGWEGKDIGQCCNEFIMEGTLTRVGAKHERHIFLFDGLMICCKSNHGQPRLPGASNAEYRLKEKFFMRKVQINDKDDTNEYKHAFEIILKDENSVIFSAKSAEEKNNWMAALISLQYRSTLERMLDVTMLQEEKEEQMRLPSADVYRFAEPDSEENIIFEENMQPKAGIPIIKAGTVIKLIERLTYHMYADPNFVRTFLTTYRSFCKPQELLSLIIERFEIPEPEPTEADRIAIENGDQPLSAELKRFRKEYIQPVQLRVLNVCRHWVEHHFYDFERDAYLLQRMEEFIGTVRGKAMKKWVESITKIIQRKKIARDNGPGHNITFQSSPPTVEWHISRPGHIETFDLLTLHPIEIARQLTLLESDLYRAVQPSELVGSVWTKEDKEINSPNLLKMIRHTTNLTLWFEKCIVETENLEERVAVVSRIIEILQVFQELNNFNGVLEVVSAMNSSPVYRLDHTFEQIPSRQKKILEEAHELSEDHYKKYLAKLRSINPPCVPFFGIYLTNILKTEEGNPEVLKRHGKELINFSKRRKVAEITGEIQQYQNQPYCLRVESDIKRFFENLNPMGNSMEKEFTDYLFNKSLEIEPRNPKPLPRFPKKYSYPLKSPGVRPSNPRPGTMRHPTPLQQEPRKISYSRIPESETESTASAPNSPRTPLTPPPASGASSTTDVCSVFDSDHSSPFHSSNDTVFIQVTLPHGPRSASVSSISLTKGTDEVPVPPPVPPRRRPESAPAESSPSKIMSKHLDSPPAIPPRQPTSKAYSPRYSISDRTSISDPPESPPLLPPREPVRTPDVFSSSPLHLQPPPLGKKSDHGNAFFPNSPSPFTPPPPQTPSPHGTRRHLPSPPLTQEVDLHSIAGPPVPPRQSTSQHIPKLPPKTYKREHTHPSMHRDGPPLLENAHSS
Experimental: (§1) The specific procedures were as follows:
(§2) 0.95 mL of cells were seeded into each well of a 24-well cell culture plate to achieve a cell density of 5×10^5 cells/well; the cell plate was incubated in an incubator at 37° C. with 5% CO2 overnight. Then 50 μL of the compound solution after dilution was added to each of the wells with the corresponding cells, so that the final concentration of the compound was in a range of 0.03-3000 nM. […] After dosing, the cell plate was incubated in an incubator at 37° C. with 5% CO2 for 24 h. […] After the plate was left to stand on ice for 30 min, the protein lysate in each well was transferred to a 1.5 mL centrifuge tube and centrifuged at 15000 g for 20 min at 4° C. The cell lysate supernatant after centrifugation was cryopreserved at −80° C. for testing and was used for determining the degradation level of the SOS1 protein by a WB method. The concentration of total protein in the cell lysate supernatant was determined using the BCA Protein Quantification Kit (Tiangen, PA115-02).
(§3) The concentration of total protein in the cell lysate was determined by BCA. The total protein was adjusted to 0.5 μg/μL with PBS and 5× SDS-PAGE protein loading buffer (Beyotime, P0015L), incubated in a water bath at 100° C. for 15 min, incubated in an ice bath on ice for 5 min, centrifuged at 14000 g for 1 min at 4° C., and mixed well as a loading sample for WB. Protein electrophoresis was performed on a precast gel (KeyGEN, KGMGO10W15) with a loading volume of 10 μL (total protein: 5 μg) using a Tris-MOPS-SDS running solution (Adamas, P1598253) at a constant voltage of 120 V for 55 min. After the electrophoresis, the protein on the gel strip was transferred to a PVDF membrane at a constant current of 250 mA for 65 min. After the membrane transfer, the membrane was incubated in 1× QuickBlock blocking buffer (Beyotime, P0235) for 30 min at room temperature. […] The protein map was subjected to gray value analysis by the chemiluminescence imaging system from Clinx. […] Then the degradation rate was calculated by comparing the gray correction value with the gray correction value of the control group. Then nonlinear curve fitting was performed by GraphPad Prism 8 in the logarithmic concentration-inhibition rate to obtain the DC50 and Dmax values of the compounds.

SOS1 protein [2] = target: T1, SOS1 protein; assay: SOS1 degradation assay (Western blot), SW-620 cells; design: host or cells: SW-620 (human cancer cell lines); conditions: 24 h; for DC50: read-out: SW620 (G12V) DC50; for Dmax: read-out: SW620 (G12V) Dmax
Experimental: as §1, §2, §3

SOS1 protein [3] = target: T1, SOS1 protein; assay: SOS1 degradation assay (Western blot), NCI-H358 cells; design: The degradation of SOS1 by the compounds was investigated on KRAS G12C mutant human non-small cell lung cancer cells NCI-H358; host or cells: NCI-H358 (human cancer cell lines); conditions: SOS1 degradation, NCI-H358 cells, 24 h, Western blot; for DC50: read-out: NCI-H358 (G12C) DC50; for Dmax: read-out: NCI-H358 (G12C) Dmax
Outline: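 SOS1 degradation was assessed by densitometry of Western blots, relative to untreated controls, after 24 h compound exposure (0.03–3000 nM final, 37 °C, 5% CO2) of cells seeded at 5×10^5/well. Log concentration–response fitting gave DC50 and Dmax.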

| Compound | DC50 (SOS1 protein [1]) [nM] | Dmax (SOS1 protein [1]) [%] | DC50 (SOS1 protein [2]) [nM] | Dmax (SOS1 protein [2]) [%] | DC50 (SOS1 protein [3]) [nM] | Dmax (SOS1 protein [3]) [%] |
| --- | --- | --- | --- | --- | --- | --- |
| COc1cc2nc(C)nc(N[C@H](C)c3cc(N)cc(C(F)(F)F)c3)c2cc1[C@H]1CC[C@H](C(=O)N2CCC(CCOCC3CCN(C(=O)c4ccc(Cl)c(N5CCC(=O)NC5=O)c4)CC3)CC2)CC1 [Example 19, 1-(5-(4-((2-(1-((1R,4R)-4-(4-(((R)-1-(3-amino-5-(trifluoromethyl)phenyl)ethyl)amino)-7-methoxy-2-methylquinazolin-6-yl)cyclohexane-1-carbonyl)piperidin-4-yl)ethoxy)methyl)piperidine-1-carbonyl)-2-chlorophenyl)dihydropyrimidine-2,4(1H,3H)-dione] | 50 to 100 | 80 to 100 | < 50 | 80 to 100 | 100 to 500 | 50 to 80 |
| COc1cc2nc(C)nc(N[C@H](C)c3cc(N)cc(C(F)(F)F)c3)c2cc1[C@H]1CC[C@H](C(=O)N2CCN(CC3CCC4(CC3)CCN(C(=O)c3ccc(Cl)c(N5CCC(=O)NC5=O)c3)CC4)CC2)CC1 [Example 2, 1-(5-(9-((4-((1R,4R)-4-(4-(((R)-1-(3-amino-5-(trifluoromethyl)phenyl)ethyl)amino)-7-methoxy-2-methylquinazolin-6-yl)cyclohexane-1-carbonyl)piperazin-1-yl)methyl)-3-azaspiro[5.5]undecane-3-carbonyl)-2-chlorophenyl)dihydropyrimidine-2,4(1H,3H)-dione] | < 50 | 80 to 100 | < 50 | 80 to 100 | < 50 | 80 to 100 |
| CNCc1ccccc1-c1csc([C@@H](C)Nc2nc(C)nc3cc(OC)c([C@H]4CC[C@H](C(=O)N5CCN(CC6CCC7(CC6)CCN(C(=O)c6ccc(OC)c(N8CCC(=O)NC8=O)c6)CC7)CC5)CC4)cc23)c1 [Example 73, 1-(2-methoxy-5-(9-((4-((1R,4R)-4-(7-methoxy-2-methyl-4-(((R)-1-(4-(2-((methylamino)methyl)phenyl)thien-2-yl)ethyl)amino)quinazolin-6-yl)cyclohexane-1-carbonyl)piperazin-1-yl)methyl)-3-azaspiro[5.5]undecane-3-carbonyl)phenyl)dihydropyrimidine-2,4(1H,3H)-dione] | 50 to 100 | 80 to 100 | < 50 | 80 to 100 | < 50 | 80 to 100 |
| COc1cc2nc(C)nc(N[C@H](C)c3cccc4c3CCS4(=O)=O)c2cc1[C@H]1CC[C@H](C(=O)N2CCN(CC3CCC4(CC3)CCN(C(=O)c3ccc(Cl)c(N5CCC(=O)NC5=O)c3)CC4)CC2)CC1 [Example 10, 1-(2-chloro-5-(9-((4-((1R,4R)-4-(4-(((R)-1-(1,1-dioxo-2,3-dihydrobenzo[b]thiophen-4-yl)ethyl)amino)-7-methoxy-2-methylquinazolin-6-yl)cyclohexane-1-carbonyl)piperazin-1-yl)methyl)-3-azaspiro[5.5]undecane-3-carbonyl)phenyl)dihydropyrimidine-2,4(1H,3H)-dione] | < 50 | 80 to 100 | < 50 | 80 to 100 | < 50 | 50 to 80 |
| COc1cc2nc(C)nc(N[C@H](C)c3cc(N)cc(C(F)(F)F)c3)c2cc1[C@H]1CC[C@H](C(=O)N2CCN(CCOCC3CCN(C(=O)c4ccc(Cl)c(N5CCC(=O)NC5=O)c4)CC3)CC2)CC1 [Example 33, 1-(5-(4-((2-(4-((1R,4R)-4-(4-(((R)-1-(3-amino-5-(trifluoromethyl)phenyl)ethyl)amino)-7-methoxy-2-methylquinazolin-6-yl)cyclohexane-1-carbonyl)piperazin-1-yl)ethoxy)methyl)piperidine-1-carbonyl)-2-chlorophenyl)dihydropyrimidine-2,4(1H,3H)-dione] | 100 to 500 | 80 to 100 | < 50 | 80 to 100 | < 50 | 80 to 100 |
| COc1cc2nc(C)nc(N[C@H](C)c3cc(N)cc(C(F)(F)F)c3)c2cc1[C@H]1CC[C@H](C(=O)N2CCN(CCC3CCC4(CC3)CCN(C(=O)c3ccc(Cl)c(N5CCC(=O)NC5=O)c3)CC4)CC2)CC1 [Example 1, 1-(5-(9-(2-(4-((1R,4R)-4-(4-(((R)-1-(3-amino-5-(trifluoromethyl)phenyl)ethyl)amino)-7-methoxy-2-methylquinazolin-6-yl)cyclohexane-1-carbonyl)piperazin-1-yl)ethyl)-3-azaspiro[5.5]undecane-3-carbonyl)-2-chlorophenyl)dihydropyrimidine-2,4(1H,3H)-dione] | < 50 | 80 to 100 | < 50 | 80 to 100 | < 50 | 80 to 100 |
